Structures are written as SMILES.

The target of the test is T1, HCV-NS5b (Hepatitis C virus genotype 1b, UniProt Q9WMX2).
T1 construct: The cloned fragment was missing the C terminus 21 amino acid residues; (His)6 (C); made in house; host or cells: XL-1 cells (E. coli)
Kind of test: HCV-NS5b Enzyme Assay. In kind it is biochemical. The following applies: 1 μM test compound; incorporation of [3H]-UTP, 37° C., 2 hours. The text has this: The coding sequence of NS5b protein was cloned by PCR from pFKI389luc/NS3-3′/ET as described by Lohmann, V., et al. (1999) Science 285, 110-113 using the following primers: • […] (SEQ. ID. NO. 1) • […] (SEQ. ID. NO. 2)
The cloned fragment was missing the C terminus 21 amino acid residues. The cloned fragment is inserted into an IPTG-inducible expression plasmid that provides an epitope tag (His)6 at the carboxy terminus of the protein.
The recombinant enzyme was expressed in XL-1 cells and after induction of expression, the protein was purified using affinity chromatography on a nickel-NTA column. Storage condition is 10 mM Tris-HCl pH 7.5, 50 mM NaCl, 0.1 mM EDTA, 1 mM DTT, 20% glycerol at −20° C.
The polymerase activity was assayed by measuring incorporation of radiolabeled UTP into a RNA product using a biotinylated, heteropolymeric template, which includes a portion of the HCV genome. Typically, the assay mixture […] contains 10 mM Tris-HCl (pH 7.5), 5 mM MgCl2, 0.2 mM EDTA, 10 mM KCl, 1 unit/μL RNAsin. 1 mM DTT, 10 μM each of NTP, including [^3H]-UTP, and 10 ng/μL biotinylated heteropolymeric template. 20× test compound in 2 μl's was then added as a 100% DMSO solution to achieve a final DMSO concentration of 5%. For IC50 determination a 10-point dose response was used. The compounds were serial diluted 2-fold […]. Typically for IC50's, compounds were tested starting at 50 uM or 2 μm depending on the potency. Reactions were started with addition of 10×NS5B in 4 μl's and allowed to incubate at 37° C. for 2 hours. Reactions were quenched with 8 μL of 100 mM EDTA and reaction mixtures (30 μL) were transferred to streptavidin-coated scintillation proximity microtiter plates (FlashPlates) and incubated at 4° C. overnight. Incorporation of radioactivity was determined by scintillation counting (cpm). The % Inhibition at a particular concentration was determined using the following equation, % Inhibition=100−[100*(cpm with inhibitor−bg)/(cpm with no inhibitor−bg)] where bg was the background with no enzyme.
`O=C(O)c1ccc2c(C3CCCCC3)c(-c3ccc4nc(-c5cccc(C(F)(F)F)c5)ccc4c3)n(CC(=O)N3CCOCC3)c2c1` [Compound 247, 3-Cyclohexyl-1-(2-morpholin-4-yl-2-oxo-ethyl)-2-[2-(3-trifluoromethyl-phenyl)-quinolin-6-yl]-1H-indole-6-carboxylic acid] yielded an inhibition at 1 µM of 98.4%. To `Cc1nc(C(F)(F)F)sc1-c1ccc2cc(-c3c(C4CCCCC4)c4ccc(C(=O)O)cc4n3CC(=O)N3CCOCC3)ccc2n1` [Compound 248, 3-Cyclohexyl-2-[2-(4-methyl-2-trifluoromethyl-thiazol-5-yl)-quinolin-6-yl]-1-(2-morpholin-4-yl-2-oxo-ethyl)-1H-indole-6-carboxylic acid] belongs 95.2%; to `Cc1ccnc(-c2ccc3cc(-c4c(C5CCCCC5)c5ccc(C(=O)O)cc5n4CC(=O)N4CCOCC4)ccc3n2)c1` [Compound 249, 3-Cyclohexyl-2-[2-(4-methyl-pyridin-2-yl)-quinolin-6-yl]-1-(2-morpholin-4-yl-2-oxo-ethyl)-1H-indole-6-carboxylic acid], 99.5%. With `Cc1ccc(-c2ccc3cc(-c4c(C5CCCCC5)c5ccc(C(=O)O)cc5n4CC(=O)N4CCOCC4)ccc3n2)cc1C` [Compound 250, 3-Cyclohexyl-2-[2-(3,4-dimethyl-phenyl)-quinolin-6-yl]-1-(2-morpholin-4-yl-2-oxo-ethyl)-1H-indole-6-carboxylic acid] the figure was 99.9%; with `COc1cc(OC)cc(-c2ccc3cc(-c4c(C5CCCCC5)c5ccc(C(=O)O)cc5n4CC(=O)N4CCOCC4)ccc3n2)c1` [Compound 251, 3-Cyclohexyl-2-[2-(3,5-dimethoxy-phenyl)-quinolin-6-yl]-1-(2-morpholin-4-yl-2-oxo-ethyl)-1H-indole-6-carboxylic acid], 98.5%; with `Cc1ccc(-c2ccc3cc(-c4c(C5CCCCC5)c5ccc(C(=O)O)cc5n4CC(=O)N4CCOCC4)ccc3n2)cc1` [Compound 252, 3-Cyclohexyl-1-(2-morpholin-4-yl-2-oxo-ethyl)-2-(2-p-tolyl-quinolin-6-yl)-1H-indole-6-carboxylic acid], 95%. With `COc1ccc(-c2ccc3cc(-c4c(C5CCCCC5)c5ccc(C(=O)O)cc5n4CC(=O)N4CCOCC4)ccc3n2)cc1OC` [Compound 253, 3-Cyclohexyl-2-[2-(3,4-dimethoxy-phenyl)-quinolin-6-yl]-1-(2-morpholin-4-yl-2-oxo-ethyl)-1H-indole-6-carboxylic acid], the inhibition at 1 µM was determined as 97.5%. To `COc1ccc(-c2ccc3cc(-c4c(C5CCCCC5)c5ccc(C(=O)O)cc5n4CC(=O)N4CCOCC4)ccc3n2)cc1` [Compound 254, 3-Cyclohexyl-2-[2-(4-methoxy-phenyl)-quinolin-6-yl]-1-(2-morpholin-4-yl-2-oxo-ethyl)-1H-indole-6-carboxylic acid] belongs 96.9%; to `O=C(O)c1ccc2c(C3CCCCC3)c(-c3ccc4nc(-c5ccccc5F)ccc4c3)n(CC(=O)N3CCOCC3)c2c1` [Compound 255, 3-Cyclohexyl-2-[2-(2-fluoro-phenyl)-quinolin-6-yl]-1-(2-morpholin-4-yl-2-oxo-ethyl)-1H-indole-6-carboxylic acid], 97.4%; to `O=C(O)c1ccc2c(C3CCCCC3)c(-c3ccc4nc(-c5cccc([N+](=O)[O-])c5)ccc4c3)n(CC(=O)N3CCOCC3)c2c1` [Compound 256, 3-Cyclohexyl-2-[2-(3-nitro-phenyl)-quinolin-6-yl]-1-(2-morpholin-4-yl-2-oxo-ethyl)-1H-indole-6-carboxylic acid], 98.1%.

For `COc1ccc(-c2ccc3cc(-c4c(C5CCCCC5)c5ccc(C(=O)O)cc5n4CC(=O)N4CCOCC4)ccc3n2)c(F)c1` [Compound 257, 3-Cyclohexyl-2-[2-(2-fluoro-4-methoxy-phenyl)-quinolin-6-yl]-1-(2-morpholin-4-yl-2-oxo-ethyl)-1H-indole-6-carboxylic acid], the inhibition at 1 µM came out at 98.6%. In turn, `Cc1cc(-c2ccc3cc(-c4c(C5CCCCC5)c5ccc(C(=O)O)cc5n4CC(=O)N4CCOCC4)ccc3n2)c(C)s1` [Compound 258, 3-Cyclohexyl-2-[2-(2,5-dimethyl-thiophen-3-yl)-quinolin-6-yl]-1-(2-morpholin-4-yl-2-oxo-ethyl)-1H-indole-6-carboxylic acid] gave an inhibition at 1 µM of 97.4%. With `O=C(O)c1ccc2c(C3CCCCC3)c(-c3ccc4nc(-c5c(F)cccc5F)ccc4c3)n(CC(=O)N3CCOCC3)c2c1` [Compound 259, 3-Cyclohexyl-2-[2-(2,6-difluoro-phenyl)-quinolin-6-yl]-1-(2-morpholin-4-yl-2-oxo-ethyl)-1H-indole-6-carboxylic acid], the inhibition at 1 µM amounted to 95.8%. To `Cc1nc(C)c(-c2ccc3cc(-c4c(C5CCCCC5)c5ccc(C(=O)O)cc5n4CC(=O)N4CCOCC4)ccc3n2)o1` [Compound 260, 3-Cyclohexyl-2-[2-(2,4-dimethyl-oxazol-5-yl)-quinolin-6-yl]-1-(2-morpholin-4-yl-2-oxo-ethyl)-1H-indole-6-carboxylic acid] belongs 96%; to `O=C(O)c1ccc2c(C3CCCCC3)c(-c3ccc4nc(-c5cccc(F)c5)ccc4c3)n(CC(=O)N3CCOCC3)c2c1` [Compound 261, 3-Cyclohexyl-2-[2-(3-fluoro-phenyl)-quinolin-6-yl]-1-(2-morpholin-4-yl-2-oxo-ethyl)-1H-indole-6-carboxylic acid], 97.1%. With `O=C(O)c1ccc2c(C3CCCCC3)c(-c3ccc4nc(-c5cccc(Br)c5)ccc4c3)n(CC(=O)N3CCOCC3)c2c1` [Compound 262, 2-[2-(3-Bromo-phenyl)-quinolin-6-yl]-3-cyclohexyl-1-(2-morpholin-4-yl-2-oxo-ethyl)-1H-indole-6-carboxylic acid] the figure was 97.3%; with `O=C(O)c1ccc2c(C3CCCCC3)c(-c3ccc4nc(-c5ccc(C(F)(F)F)cc5)ccc4c3)n(CC(=O)N3CCOCC3)c2c1` [Compound 263, 3-Cyclohexyl-1-(2-morpholin-4-yl-2-oxo-ethyl)-2-[2-(4-trifluoromethyl-phenyl)-quinolin-6-yl]-1H-indole-6-carboxylic acid], 94.4%.

As to `Nc1cccc(-c2ccc3cc(-c4c(C5CCCCC5)c5ccc(C(=O)O)cc5n4CC(=O)N4CCOCC4)ccc3n2)c1` [Compound 264, 2-[2-(3-Amino-phenyl)-quinolin-6-yl]-3-cyclohexyl-1-(2-morpholin-4-yl-2-oxo-ethyl)-1H-indole-6-carboxylic acid], testing at 1 µM gave an inhibition of 93%.

Molecule `O=C(O)c1ccc2c(C3CCCCC3)c(-c3ccc4nc(-c5ccc(F)cc5)ccc4c3)n(CC(=O)N3CCOCC3)c2c1` [Compound 265, 3-Cyclohexyl-2-[2-(4-fluoro-phenyl)-quinolin-6-yl]-1-(2-morpholin-4-yl-2-oxo-ethyl)-1H-indole-6-carboxylic acid] showed an inhibition at 1 µM of 96.3%. As for `O=C(O)c1ccc2c(C3CCCCC3)c(-c3ccc4nc(-c5ccc(F)c(F)c5)ccc4c3)n(CC(=O)N3CCOCC3)c2c1` [Compound 266, 3-Cyclohexyl-2-[2-(3,4-difluoro-phenyl)-quinolin-6-yl]-1-(2-morpholin-4-yl-2-oxo-ethyl)-1H-indole-6-carboxylic acid], the inhibition at 1 µM amounted to 97.1%. To `O=C(O)c1ccc2c(C3CCCCC3)c(-c3ccc4nc(-c5ccccc5C(F)(F)F)ccc4c3)n(CC(=O)N3CCOCC3)c2c1` [Compound 267, 3-Cyclohexyl-1-(2-morpholin-4-yl-2-oxo-ethyl)-2-[2-(2-trifluoromethyl-phenyl)-quinolin-6-yl]-1H-indole-6-carboxylic acid] belongs 94.6%. To `Cc1nccnc1-c1ccc2cc(-c3c(C4CCCCC4)c4ccc(C(=O)O)cc4n3CC(=O)N3CCOCC3)ccc2n1` [Compound 268, 3-Cyclohexyl-2-[2-(3-methyl-pyrazin-2-yl)-quinolin-6-yl]-1-(2-morpholin-4-yl-2-oxo-ethyl)-1H-indole-6-carboxylic acid] belongs 96.1%. To `CCOc1ncc(-c2ccc3cc(-c4c(C5CCCCC5)c5ccc(C(=O)O)cc5n4CC(=O)N4CCOCC4)ccc3n2)c(C)n1` [Compound 269, 3-Cyclohexyl-2-[2-(2-ethoxy-4-methyl-pyrimidin-5-yl)-quinolin-6-yl]-1-(2-morpholin-4-yl-2-oxo-ethyl)-1H-indole-6-carboxylic acid] belongs 93.6%.

(Values after patent US20060211698A1, “Bicyclic heteroaryl derivatives for treating viruses” (Genelabs, Inc., priority 2005, published 2006).)
